Laboratory results from ChEMBL document CHEMBL4837220, “Development of tricyclic N-benzyl-4-hydroxybutanamide derivatives as inhibitors of GABA transporters mGAT1-4 with anticonvulsant, antinociceptive, and antidepressant activity” (Eur J Med Chem, 2021).
Activity calls are given as the source filed them.

Tests used:
[1] = target: Sodium- and chloride-dependent GABA transporter 1 (Mus musculus) (UniProt P31648); test: Residual NO711 binding to mouse GAT1 expressed in human HEK293 cell line at 100 uM by MS binding assay relative to control
[2] = target: T1, GABA transporter 4 (Mus musculus, UniProt P31650); test: Inhibition of mouse GAT4 expressed in human HEK293 cell line assessed as inhibition of [3H]GABA uptake measured after 40 mins by […]; type: cell-based
T1 sequence (P31650 whole entry): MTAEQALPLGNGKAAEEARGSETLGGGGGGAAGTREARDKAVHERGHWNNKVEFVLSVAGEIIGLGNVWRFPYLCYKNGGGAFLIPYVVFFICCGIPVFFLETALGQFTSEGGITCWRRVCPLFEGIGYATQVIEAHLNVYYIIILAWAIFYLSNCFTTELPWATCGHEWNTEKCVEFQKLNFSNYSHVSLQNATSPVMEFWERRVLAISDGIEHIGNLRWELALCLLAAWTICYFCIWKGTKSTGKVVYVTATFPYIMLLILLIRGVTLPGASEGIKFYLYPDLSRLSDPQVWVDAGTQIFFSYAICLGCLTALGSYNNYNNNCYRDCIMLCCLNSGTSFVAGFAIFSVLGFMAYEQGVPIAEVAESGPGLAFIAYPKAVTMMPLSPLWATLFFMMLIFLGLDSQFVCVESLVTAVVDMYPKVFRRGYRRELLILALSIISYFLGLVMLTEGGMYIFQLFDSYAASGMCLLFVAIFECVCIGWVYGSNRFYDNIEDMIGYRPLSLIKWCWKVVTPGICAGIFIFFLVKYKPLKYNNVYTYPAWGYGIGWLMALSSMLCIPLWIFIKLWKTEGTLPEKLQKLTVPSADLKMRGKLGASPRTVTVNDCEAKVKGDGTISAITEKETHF

[3] = target: T2, GABA transporter 2 (Mus musculus, UniProt P31651); test: Inhibition of mouse GAT2 expressed in human HEK293 cell line assessed as inhibition of [3H]GABA uptake measured after 40 mins by […]; type: cell-based
T2 sequence (P31651 whole entry): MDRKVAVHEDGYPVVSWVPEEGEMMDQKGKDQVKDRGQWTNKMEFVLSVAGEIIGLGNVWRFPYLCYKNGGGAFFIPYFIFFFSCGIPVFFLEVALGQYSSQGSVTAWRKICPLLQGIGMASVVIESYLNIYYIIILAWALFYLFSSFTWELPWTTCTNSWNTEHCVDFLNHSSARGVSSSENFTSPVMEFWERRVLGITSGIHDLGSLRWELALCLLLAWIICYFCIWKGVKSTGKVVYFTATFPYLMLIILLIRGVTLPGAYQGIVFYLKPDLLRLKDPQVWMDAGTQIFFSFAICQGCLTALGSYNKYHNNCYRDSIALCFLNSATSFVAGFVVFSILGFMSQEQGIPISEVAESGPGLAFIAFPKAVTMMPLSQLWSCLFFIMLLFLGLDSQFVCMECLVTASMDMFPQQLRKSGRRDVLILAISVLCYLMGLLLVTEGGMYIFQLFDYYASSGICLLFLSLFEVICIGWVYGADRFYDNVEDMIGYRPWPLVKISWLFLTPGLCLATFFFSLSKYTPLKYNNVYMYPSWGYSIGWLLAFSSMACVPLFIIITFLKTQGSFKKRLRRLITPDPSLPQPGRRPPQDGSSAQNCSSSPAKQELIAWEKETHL

[4] = target: T3, Sodium- and chloride-dependent GABA transporter 1 (Mus musculus, UniProt P31648); test: Inhibition of mouse GAT1 expressed in human HEK293 cell line assessed as inhibition of [3H]GABA uptake measured after 40 mins by […]; type: cell-based
[5] = target: T3, Sodium- and chloride-dependent GABA transporter 1; test: Inhibition of NO711 binding to mouse GAT1 expressed in human HEK293 cell line by MS binding assay
[6] = target: GABA transporter 3 (Mus musculus, Slc6a13); test: Inhibition of mouse GAT3 expressed in human HEK293 cell line assessed as inhibition of [3H]GABA uptake measured after 40 mins by […]
[7] = tested on: Mus musculus; test: Anticonvulsant activity in CD-1 mouse assessed as elevation of seizure threshold at 10 mg/kg, ip measured by electroconvulsive threshold test relative to control; type: functional, organism-based
[8] = target: T4, GABA transporter 2 (Mus musculus) (UniProt P31651); test: Inhibition of mouse GAT2 expressed in human HEK293 cell line assessed as residual [3H]GABA uptake at 100 uM measured after 40 mins by […]
T4 sequence (whole entry): T2 sequence (P31651 whole entry)

| Structure (SMILES) | residual activity [1] [%] | IC50 [2] [µM] | IC50 [3] [µM] | IC50 [4] [µM] | pKi [5] | pIC50 [6] | residual activity [8] [%] | Activity [7] |
| --- | --- | --- | --- | --- | --- | --- | --- | --- |
| O=C(O)C1CCCN(CCC=C2c3ccccc3CCc3ccccc32)C1 (centres undefined) |  |  |  | 13.5 |  |  |  |  |
| CC(=O)NCCC(C(=O)NCc1ccccc1Cl)N(C)CCC=C1c2ccccc2CCc2ccccc21 (centres undefined) | 87 | 18.6 | 26.3 | 28.8 |  |  |  |  |
| CN(CCC=C1c2ccccc2CCc2ccccc21)C(CCN)C(=O)NCc1ccc(Cl)cc1 (centres undefined) |  | 5.62 | 11 | 6.31 | 4.6 |  |  |  |
| CN(CCC=C(c1ccccc1)c1ccccc1)C(CCO)C(=O)NCc1ccccc1Cl (centres undefined) | 54 | 10 | 12.6 |  |  | 5.14 |  |  |
| CN(CCC=C1c2ccccc2CCc2ccccc21)C(CCN)C(=O)NCc1ccccc1Cl (centres undefined) |  | 4.9 | 13.5 | 6.61 | 4.87 |  |  |  |
| CN(CCC=C1c2ccccc2CCc2ccccc21)C(CCO)C(=O)NCc1ccccc1Cl (centres undefined) | 82 | 15.8 | 11 | 25.1 |  |  |  |  |
| CC(=O)NCCC(C(=O)NCc1ccc(C)cc1)N(C)CCC=C1c2ccccc2CCc2ccccc21 (centres undefined) | 69 | 13.5 | 15.5 | 13.8 |  |  |  |  |
| CC(=O)NCCC(C(=O)NCc1ccccc1Cl)N(C)CCC=C(c1sccc1C)c1sccc1C (centres undefined) |  |  | 4.47 |  |  | 5.61 |  |  |
| CN(CCC=C1c2ccccc2-c2ccccc21)C(CCO)C(=O)NCc1ccccc1 (centres undefined) | 75 | 25.1 | 17.8 | 24 |  |  |  |  |
| CN(CCC=C1c2ccccc2C=Cc2ccccc21)C(CCO)C(=O)NCc1ccc(Cl)cc1 (centres undefined) | 63 | 15.8 | 14.5 | 69.2 |  |  |  |  |
| CN(CCC=C1c2ccccc2CCc2ccccc21)C(CCO)C(=O)NCc1ccc(F)cc1 (centres undefined) | 81 | 13.2 | 5.75 | 21.9 |  |  |  |  |
| CC(=O)NCCC(C(=O)NCc1ccc(Cl)cc1)N(C)CCC=C1c2ccccc2CCc2ccccc21 (centres undefined) | 90 | 12.6 | 47.9 | 28.2 |  |  |  |  |
| Cc1ccc(CNC(=O)C(CCO)N(C)CCC=C2c3ccccc3C=Cc3ccccc32)cc1 (centres undefined) | 55 | 9.12 | 9.77 | 27.5 |  |  |  |  |
| CN(CCC=C1c2ccccc2-c2ccccc21)C(CCO)C(=O)NCc1ccccc1Cl (centres undefined) | 93 | 26.9 | 25.7 | 33.1 |  |  |  |  |
| CN(CCC=C1c2ccccc2C=Cc2ccccc21)C(CCO)C(=O)NCc1ccccc1Cl (centres undefined) | 69 | 9.55 | 6.76 | 20.9 |  |  |  |  |

Second part, led by results:

| residual activity [1] [%] | IC50 [2] [µM] | IC50 [3] [µM] | IC50 [4] [µM] | pKi [5] | pIC50 [6] | residual activity [8] [%] | Structure (SMILES) | Activity [7] |
| --- | --- | --- | --- | --- | --- | --- | --- | --- |
| 91 | 44.7 | 32.4 | 42.7 |  |  |  | CN(CCC=C1c2ccccc2-c2ccccc21)C(CCO)C(=O)NCc1ccc(Cl)cc1 (centres undefined) |  |
|  | 4.37 | 11.7 | 6.31 | 4.96 |  |  | CN(CCC=C1c2ccccc2CCc2ccccc21)C(CCN)C(=O)NCc1ccc(F)cc1 (centres undefined) |  |
|  |  | 49 |  | 8.29 | 4.35 |  | O=C(O)C1=CCCN(CCO/N=C/c2ccccc2-c2ccc(Cl)cc2Cl)C1 | inactive |
|  | 4.68 | 9.55 | 8.13 | 4.78 |  |  | CN(CCC=C1c2ccccc2CCc2ccccc21)C(CCN)C(=O)NCc1ccccc1 (centres undefined) |  |
|  |  |  | 2 |  |  |  | O=C(O)[C@@H]1CCCN(CCC=C2c3ccccc3-c3ccccc32)C1 |  |
| 79 | 15.8 | 7.76 | 10 |  |  |  | CN(CCC=C1c2ccccc2CCc2ccccc21)C(CCO)C(=O)NCc1ccc(Cl)cc1 (centres undefined) |  |
| 90 | 35.5 | 25.7 | 37.2 |  |  |  | CN(CCC=C1c2ccccc2-c2ccccc21)C(CCO)C(=O)NCc1ccc(F)cc1 (centres undefined) |  |
| 71 | 11.2 | 19.5 | 13.8 |  |  |  | CC(=O)NCCC(C(=O)NCc1ccc(F)cc1)N(C)CCC=C1c2ccccc2CCc2ccccc21 (centres undefined) |  |
| 77 | 17.8 | 37.2 | 28.8 |  |  |  | CC(=O)NCCC(C(=O)NCc1ccccc1)N(C)CCC=C1c2ccccc2CCc2ccccc21 (centres undefined) |  |
| 99 | 30.9 | 30.2 | 31.6 |  |  |  | Cc1ccc(CNC(=O)C(CCO)N(C)CCC=C2c3ccccc3-c3ccccc32)cc1 (centres undefined) |  |
|  | 6.46 | 11.2 | 7.24 | 5.14 |  |  | Cc1ccc(CNC(=O)C(CCN)N(C)CCC=C2c3ccccc3CCc3ccccc32)cc1 (centres undefined) |  |
|  |  |  |  | 4.96 |  |  | CN(CCC=C(c1ccccc1)c1ccccc1)C(CCN)C(=O)NCc1ccccc1Cl (centres undefined) |  |
| 77 | 1.29 |  | 72.4 |  |  | 73 | COc1ccc(C(OCCN2CCC[C@H](C(=O)O)C2)(c2ccc(OC)cc2)c2ccc(-c3ccc(C=O)cc3)cc2)cc1 |  |
| 51 | 17 | 9.12 | 20 |  |  |  | CN(CCC=C1c2ccccc2CCc2ccccc21)C(CCO)C(=O)NCc1ccccc1 (centres undefined) |  |
| 71 | 13.5 | 10.2 | 21.9 |  |  |  | CN(CCC=C1c2ccccc2C=Cc2ccccc21)C(CCO)C(=O)NCc1ccc(F)cc1 (centres undefined) |  |
